Results on 29 compounds are retold here after patent US10696692B2, “Amido-benzyl sulfone and sulfoxide derivates” (Forma TM, LLC, priority 2012, dated 2020).

The structures appear in SMILES notation. Where two headings read alike, the source gives them in different places.

For one test, the system named is A2780 cells. The test is described as follows: Assay 2: In-Vitro Cell Proliferation Assay (A2780 cells, SRB readout, 72 hours).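 Further: viable cells counted via sulforhodamine B staining, absorbance at 570 nm, after 72 h exposure at 37 °C, DMSO 0.1% as control, media-only background subtracted.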 It counts as cell-based. Particulars: A2780 cells, 72 hours, SRB, read-out: Cell Proliferation (IC50).
The target of the next test is NAMPT (Homo sapiens (Human), UniProt P43490). Kind of test: Assay 1: Biochemical Inhibition Assay (NAMPT enzymatic reaction, NMN quantified by mass spectrometry).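 Further: recombinant His-tagged human NAMPT preincubated with compound 15 min, then reacted 30 min at rt with 1 µM NAM, 100 µM PRPP, 2.5 mM ATP, NMN product read by RapidFire MS, normalized to L-Cystathionine internal standard.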 The following applies: read-out: Biochemical (IC50).
Sequence of NAMPT (P43490 whole entry): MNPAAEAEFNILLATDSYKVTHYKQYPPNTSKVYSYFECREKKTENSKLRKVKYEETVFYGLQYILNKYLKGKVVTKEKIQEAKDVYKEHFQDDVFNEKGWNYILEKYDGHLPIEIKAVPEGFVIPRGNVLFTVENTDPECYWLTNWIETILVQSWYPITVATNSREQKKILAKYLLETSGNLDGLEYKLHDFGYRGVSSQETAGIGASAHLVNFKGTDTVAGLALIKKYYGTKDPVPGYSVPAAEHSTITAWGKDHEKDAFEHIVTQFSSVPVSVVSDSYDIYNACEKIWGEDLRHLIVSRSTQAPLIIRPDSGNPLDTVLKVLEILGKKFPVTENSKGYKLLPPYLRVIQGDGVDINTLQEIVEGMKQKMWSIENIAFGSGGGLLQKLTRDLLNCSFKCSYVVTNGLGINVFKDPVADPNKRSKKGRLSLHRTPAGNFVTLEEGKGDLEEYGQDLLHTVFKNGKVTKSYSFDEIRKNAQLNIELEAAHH

Consider `O=C(NCc1ccc(S(=O)(=O)N2CC[C@H]3C[C@H]32)cc1)c1ccc2nccn2c1` (racemic) [Example 166, cis-Imidazo[1,2-a]pyridine-6-carboxylic acid 4-(2-aza-bicyclo[3.1.0]hexane-2-sulfonyl)-benzylamide], for which the IC50 in the test on A2780 cells (Homo sapiens, A2780, 72 h) was determined as 0.0096 µM; on NAMPT it was 0.0172 µM.
Take `O=C(NCc1ccc(S(=O)(=O)N2CC3CCC(F)(F)C3C2)cc1)c1ccc2nccn2c1` (single isomer, unassigned) [Example 73, cis-Imidazo[1,2-a]pyridine-6-carboxylic acid 4-(4,4-difluoro-hexahydro-cyclopenta[c]pyrrole-2-sulfonyl)-benzylamide]: the IC50 came out at 0.0008 µM in the test with A2780 cells and 0.003 µM at NAMPT.
As for `O=C(NCc1ccc(S(=O)(=O)N2CCC3(CCNC3=O)C2)cc1)c1cnc2[nH]ncc2c1` (stereo not shown) [Example 282, N-[[4-[(1-oxo-2,7-diazaspiro[4.4]nonan-7-yl)sulfonyl)phenyl]methyl]-1H-pyrazolo[3,4-b]pyridine-5-carboxamide], the IC50 in the test on A2780 cells (Homo sapiens, A2780, 72 h) was 0.233 µM; on NAMPT it was 0.101 µM.
Regarding `O=C(NCc1ccc(S(=O)(=O)N2CCC3(CCCN3)CC2)cc1)c1ccc2nccn2c1` [Example 321, N-[[4-(1,8-diazaspiro[4.5]decan-8-ylsulfonyl)phenyl]methyl] imidazo[1,2-a]pyridine-6-carboxamide], the IC50 in the test on A2780 cells (Homo sapiens, A2780, 72 h) was 0.054 µM; on NAMPT, 0.0651 µM.
In the same order, the values of `N#CC1CCN(S(=O)(=O)c2ccc(CNC(=O)c3cc4ccncc4o3)cc2)CC1` [Example 12, Furo[2,3-c]pyridine-2-carboxylic acid 4-(4-cyano-piperidine-1-sulfonyl)-benzylamide] are 0.186 µM and 0.0262 µM.
In the same order, the values of `O=C(NCc1ccc(S(=O)(=O)C2CCN(CC(F)(F)F)CC2)cc1)c1cnc2nccn2c1` [Example 209, N-[[4-[[1-(2,2,2-trifluoroethyl)-4-piperidyl]sulfonyl]phenyl]methyl]imidazo[1,2-a]pyrimidine-6-carboxamide] are 0.00884 µM and 0.00372 µM.
For `O=C(NCc1ccc([S+]([O-])C2CCN(C3CCOCC3)CC2)cc1)c1cnc2[nH]ncc2c1` (stereo not shown) [Example 381, N-[[4-[(1-tetrahydropyran-4-yl-4-piperidyl)sulfinyl]phenyl]methyl]-1H-pyrazolo[3,4-b]pyridine-5-carboxamide] the same measures were 0.201 µM and 0.29 µM.
In the case of `O=C(NCc1ccc(S(=O)(=O)N2C[C@H]3CCC(F)(F)[C@H]3C2)cc1)c1cnc2[nH]ncc2c1` (racemic) [Example 176, cis-1H-Pyrazolo[3,4-b]pyridine-5-carboxylic acid 4-(4,4-difluoro-hexahydro-cyclopenta[c]pyrrole-2-sulfonyl)-benzylamide], the IC50 is 0.0227 µM in the test with A2780 cells (Homo sapiens, A2780, 72 h) and 0.0379 µM at NAMPT.
As to `O=C(NCc1ccc(S(=O)(=O)N2CC3(CCCO3)C2)cc1)c1ccc2nccn2c1` [Example 274, N-[(4-(5-oxa-2-azaspiro[3.4]octan-2-ylsulfonyl)phenyl]methyl] imidazo[1,2-a]pyridine-6-carboxamide], the IC50 is 0.00593 µM with A2780 cells (Homo sapiens, A2780, 72 h) and 0.019 µM on NAMPT.
For `O=C(NCc1ccc(S(=O)(=O)[C@H]2CCOC2)cc1)c1cc2cnccc2[nH]1` [Example 221, N-[[4-[(3S)-tetrahydrofuran-3-yl]sulfonylphenyl]methyl]-1H-pyrrolo[3,2-c]pyridine-2-carboxamide] the same measures were 0.347 µM and 0.125 µM.
As to `CC(C)(C)OC(=O)N1CCCCC12CCN(S(=O)(=O)c1ccc(CNC(=O)c3ccc4nccn4c3)cc1)C2` (stereo not shown) [Example 243, tert-butyl 2-[4-[(imidazo[1,2-a]pyridine-6-carbonylamino)methyl]phenyl] sulfonyl-2,6-diazaspiro[4.5]decane-6-carboxylate], the IC50 in the test with A2780 cells (Homo sapiens, A2780, 72 h) was 0.0433 µM; on NAMPT, 0.0149 µM.
For the compound `O=C(NCc1ccc(S(=O)(=O)C2CCNCC2)cc1)c1ccc2nccn2c1` [Example 234, N-[[4-(4-piperidylsulfonyl)phenyl]methyl]imidazo[1,2-a]pyridine-6-carboxamide], the IC50 was determined as 0.13 µM in the test on A2780 cells (Homo sapiens, A2780, 72 h) and 0.0906 µM on NAMPT.
In the same order, the values of `CN1CCC2(CC1)CN(S(=O)(=O)c1ccc(CNC(=O)c3ccc4nccn4c3)cc1)C2` [Example 271, N-[[4-[(7-methyl-2,7-diazaspiro[3.5]nonan-2-yl)sulfonyl]phenyl]methyl] imidazo[1,2-a]pyridine-6-carboxamide] are 0.0121 µM and 0.0275 µM.
In the case of `COCCNC1CCN(S(=O)(=O)c2ccc(CNC(=O)c3cnc4[nH]ncc4c3)cc2)CC1` [Example 39, 1H-Pyrazolo[3,4-b]pyridine-5-carboxylic acid 4-[4-(2-methoxy-ethylamino)-piperidine-1-sulfonyl]-benzylamide], the IC50 is 0.0947 µM in the test on A2780 cells (Homo sapiens, A2780, 72 h) and 0.0835 µM on NAMPT.
Turning to `O=C(NCc1ccc(S(=O)(=O)N2CCC3(CCNC3)C2)cc1)c1ccc2nccn2c1` (stereo not shown) [Example 262, N-[[4-(2,7-diazaspiro[4.4]nonan-2-ylsulfonyl)phenyl]methyl] imidazo[1,2-a]pyridine-6-carboxamide], the IC50 with A2780 cells (Homo sapiens, A2780, 72 h) is 0.106 µM; at NAMPT, 0.0649 µM.
In the case of `O=C(NCc1ccc(S(=O)(=O)N2C[C@@H]3CCO[C@@H]3C2)cc1)c1cnc2[nH]ncc2c1` (racemic) [Example 178, cis-1H-Pyrazolo[3,4-b]pyridine-5-carboxylic acid 4-(hexahydro-furo[2,3-c]pyrrole-5-sulfonyl)-benzylamide], the IC50 in the test with A2780 cells (Homo sapiens, A2780, 72 h) came out at 0.172 µM; at NAMPT it was 0.133 µM.
Consider `C[C@@H]1CN(S(=O)(=O)c2ccc(CNC(=O)c3cc4ccncc4o3)cc2)C[C@H](C)N1` [Example 61, cis-Furo[2,3-c]pyridine-2-carboxylic acid 4-((3R,5S)-3,5-dimethyl-piperazine-1-sulfonyl)-benzylamide], for which the IC50 in the test on A2780 cells (Homo sapiens, A2780, 72 h) worked out at 0.0233 µM; on NAMPT, 0.0215 µM.
In the same order, the values of `N[C@H]1C[C@H]2CC[C@@H](C1)N2S(=O)(=O)c1ccc(CNC(=O)c2cc3ccncc3s2)cc1` [Example 44, Thieno[2,3-c]pyridine-2-carboxylic acid 4-((1R,3R,5S)-3-amino-8-aza-bicyclo[3.2.1]octane-8-sulfonyl)-benzylamide] are 0.0232 µM and 0.0058 µM.
Regarding `O=C(NCc1ccc(S(=O)(=O)N2CCCC(O)C2)cc1)c1cnc2[nH]ncc2c1` (racemic) [Example 33, 1H-Pyrazolo[3,4-b]pyridine-5-carboxylic acid 4-(3-hydroxy-piperidine-1-sulfonyl)-benzylamide], the IC50 in the test with A2780 cells (Homo sapiens, A2780, 72 h) amounted to 0.184 µM; on NAMPT it was 0.169 µM.
As for `O=C(NCc1ccc(S(=O)(=O)[C@@H]2CCOC2)cc1)c1cnc2[nH]ncc2c1` [Example 90, 1H-Pyrazolo[3,4-b]pyridine-5-carboxylic acid 4-[(R)-(tetrahydro-furan-3-yl)sulfonyl]-benzylamide], the IC50 in the test with A2780 cells stood at 1.8 µM; on NAMPT, 0.227 µM.
Regarding `O=C(NCc1ccc(S(=O)(=O)N2CCC3(CCNC3=O)C2)cc1)c1ccc2nccn2c1` (stereo not shown) [Example 217, N-[[4-[(1-oxo-2,7-diazaspiro[4.4]nonan-7-yl)sulfonyl]phenyl]methyl] imidazo[1,2-a]pyridine-6-carboxamide], the IC50 with A2780 cells (Homo sapiens, A2780, 72 h) was 0.0101 µM; at NAMPT it was 0.016 µM.
For the compound `O=C(NCc1ccc(S(=O)(=O)N2CCC3(CCCO3)C2)cc1)c1cnc2[nH]ncc2c1` (stereo not shown) [Example 284, N-[[4-(1-oxa-7-azaspiro[4.4]nonan-7-ylsulfonyl)phenyl]methyl]-1H-pyrazolo[3,4-b]pyridine-5-carboxamide], the IC50 in the test with A2780 cells (Homo sapiens, A2780, 72 h) was found to be 0.0429 µM; on NAMPT, 0.0709 µM.
For `O=C(NCc1ccc(S(=O)(=O)N2CCC(C(F)(F)F)C2)cc1)c1ccc2nccn2c1` (racemic) [Example 111, Imidazo[1,2-a]pyridine-6-carboxylic acid 4-(3-trifluoromethyl-pyrrolidine-1-sulfonyl)-benzylamide] the same measures were 0.0025 µM and 0.0056 µM.
In the same order, the values of `O=C(NCc1ccc(S(=O)(=O)N2CCCCC2)cc1)c1cnc2nccn2c1` [Example 6, Imidazo[1,2-a]pyrimidine-6-carboxylic acid 4-(piperidine-1-sulfonyl)-benzylamide] are 0.129 µM and 0.0035 µM.
For `CC(=O)N1CCC(S(=O)(=O)c2ccc(CNC(=O)c3cc4cnccc4[nH]3)cc2)CC1` [Example 113, 1H-Pyrrolo[3,2-c]pyridine-2-carboxylic acid 4-(1-acetyl-piperidine-4-sulfonyl)-benzylamide] the same measures were 0.0446 µM and 0.0642 µM.
Turning to `O=C(NCc1ccc(S(=O)(=O)N2CCC(O)CC2)cc1)c1cc2cnccc2[nH]1` [Example 31, 1H-Pyrrolo[3,2-c]pyridine-2-carboxylic acid 4-(4-hydroxy-piperidine-1-sulfonyl)-benzylamide], the IC50 in the test on A2780 cells (Homo sapiens, A2780, 72 h) amounted to 0.0482 µM; on NAMPT, 0.055 µM.
Take `CN(C)[C@H]1CCN(S(=O)(=O)c2ccc(CNC(=O)c3ccc4nccn4c3)cc2)C1` [Example 108, Imidazo[1,2-a]pyridine-6-carboxylic acid 4-((S)-3-dimethylamino-pyrrolidine-1-sulfonyl)-benzylamide]: the IC50 in the test with A2780 cells (Homo sapiens, A2780, 72 h) is 0.0053 µM; at NAMPT it was 0.0256 µM.
In the same order, the values of `C[C@@H]1CN(S(=O)(=O)c2ccc(CNC(=O)c3ccc4nccn4c3)cc2)C[C@H]1O` (racemic) [Example 139, trans-Imidazo[1,2-a]pyridine-6-carboxylic acid 4-(3-hydroxy-4-methyl-pyrrolidine-1-sulfonyl)-benzylamide] are 0.0103 µM and 0.0145 µM.
For `CC(C)N1CCC([S+]([O-])c2ccc(CNC(=O)N3Cc4ccncc4C3)cc2)CC1` (stereo not shown) [Example 363, N-[[4-[(1-isopropyl-4-piperidyl)sulfinyl]phenyl]methyl]-1,3-dihydropyrrolo[3,4-c]pyridine-2-carboxamide] the same measures were 0.0456 µM and 0.0537 µM.
